Test results: ChEMBL document CHEMBL4732159, “Discovery of 6-Oxo-4-phenyl-hexanoic acid derivatives as RORγt inverse agonists showing favorable ADME profile” (Bioorg Med Chem Lett, 2021)

Columns and labels:
[1] = Intrinsic clearance in human liver microsomes
[2] = Protein binding in mouse plasma
[3] = Half life in mouse at 1 umol/kg, iv; settings: in vivo
[4] = Clearance in mouse at 2 umol/kg, po or 1 umol/kg, iv; settings: in vivo
[5] = Protein binding in human plasma
[6] = Apparent permeability across basal to apical membrane in human Caco-2 cells
[7] = Half life in mouse at 2 umol/kg, po; settings: in vivo
[8] = in vivo; settings: mouse, po, 2 umol/kg
[9] = Apparent permeability across apical to basal membrane in human Caco-2 cells
[10] = Intrinsic clearance in mouse liver microsome; settings: microsomes
[11] = in vivo; settings: mouse, po, 2 umol/kg; remark: listed apart in the source

Row | SMILES | CLH [1] | fraction unbound [2] | half-life [3] | clearance [4] | fraction unbound [5] | Papp B→A [6] | half-life [7] | AUC [8] | Papp A→B [9] | CLH [10] | bioavailability [11]
1 | Cc1c(CN2CCN(C(=O)C3CCCC3)[C@@H](C)C2)cc(F)cc1NC(=O)CCc1ccccc1 | 1900 µL/min/mg |  |  |  |  |  |  |  |  |  | 
2 | Cc1c(CN2CCN(C(=O)C3CCCC3)[C@@H](C)C2)cc(F)cc1NC(=O)CC(CCC(=O)O)c1ccccc1 (stereo in doubt; 6a) | < 10 µL/min/mg | 0.028 | 1.2 h | 76.7 mL/min/kg | 0.006 | 39 ×10⁻⁶ cm/s | 1.5 h | 0.2 µM·h | 1.3 ×10⁻⁶ cm/s | 17 µL/min/mg | 46%

The next lines start with the values.

Row | CLH [1] | fraction unbound [2] | half-life [3] | clearance [4] | fraction unbound [5] | Papp B→A [6] | half-life [7] | AUC [8] | Papp A→B [9] | CLH [10] | bioavailability [11] | SMILES
3 | 21 µL/min/mg |  |  |  |  |  |  |  |  |  |  | Cc1c(CN2CCN(C(=O)C3CCCC3)[C@@H](C)C2)cc(F)cc1NC(=O)CC(CCC(=O)O)c1ccccc1 (stereo in doubt; 6b)
4 | 31 µL/min/mg | 0.006 | 1.5 h | 8.67 mL/min/kg | 0.003 | 45 ×10⁻⁶ cm/s | 1.5 h | 4 µM·h | 13 ×10⁻⁶ cm/s | < 10 µL/min/mg | 100% | C[C@H]1CN(Cc2cc(Cl)cc(NC(=O)CC(CCC(=O)O)c3ccccc3)c2Cl)CCN1C(=O)C1CCCC1 (stereo in doubt; 12a)
5 | < 10 µL/min/mg |  |  |  |  |  |  |  |  |  |  | C[C@H]1CN(Cc2cc(Cl)cc(NC(=O)CC(CCC(=O)O)c3ccccc3)c2Cl)CCN1C(=O)C1CCCC1 (stereo in doubt; 12b)
